# Results taken from patent publication US20250340561A1, “QUINAZOLINE COMPOUND FOR INDUCING DEGRADATION OF G12D MUTANT KRAS PROTEIN” (Astellas Pharma Inc., priority 2021, published 2025).
# Structures can show the parent of a compound that is named as a salt.
# Target: T1, KRAS G12D (Homo sapiens, UniProt P01116, G12D)
# T1 construct: host or cells: AsPC-1 human pancreatic cancer cells
# Experiment: Test Example 1-1: KRAS degradation action in AsPC-1, sandwich ELISA
# Assay type: cell-based
# Settings: AsPC-1 cells, 24 hours treatment, corrected with β-actin, 0% = 10 μM Example No. 7
# Procedure: Test Example 1-1: Evaluation of KRAS Degradation Action on Human G12D Mutant KRAS-Positive Pancreatic Cancer Line AsPC-1
# The KRAS degradation action of test compounds was evaluated by measuring the expression levels of KRAS G12D by a sandwich ELISA method.
# AsPC-1 cells (ATCC, CRL-1682) were seeded at 90 μL per well on a 96-well plate (from IWAKI) to give 1.8×10^4 cells per well. As for the cell culture conditions, RPMI 1640 medium (from Merck) containing 10% fetal bovine serum (from Cytiva) was used in the presence of 5% CO2 at 37° C.
# The next day, the test compounds (10 points having final concentrations in the range of 10 μM to 0.3 nM) were diluted 100-fold with a fresh medium and were added at 10 μL per well. The same treatments were each applied to 4 wells. In addition, in production of the sandwich ELISA plate, a capture antibody (anti-KRAS antibody, from LS Bio) mixed in Phosphate Buffered Saline [PBS; from FUJIFILM Wako Pure Chemical Corporation] in 1,000-fold dilution was added at 20 μL per well to a Maxisorp 384-well plate (from Thermo Scientific), and after attaching a seal, the plate was allowed to stand at 4° C. overnight.
# After 24 hours of the test compound treatment, the culture supernatant was discarded. Immediately, a cytolytic solution (produced by adding, to a RIPA buffer [from Thermo Scientific], a Halt Protease Phosphatese Inhibitor Cocktail [from Thermo Scientific] and Benzonase Nuclease [from Merck] in amounts of 1/100 and 1/500, respectively) was added at 50 μL per well, and the cells were lysed. Then, equally treated 4 wells were combined to prepare a cell lysate sample of 200 μL in total. For KRAS detection, the Maxisorp 384-well plate which had been treated with the capture antibody since the previous day was washed (twice with 25 μL each) with 0.05% Tween-20-containing PBS (from Thermo Scientific; 20×PBS Tween-20 was diluted 20-fold with ion exchange water and used) and was treated with a blocking solution (Intercept Blocking Buffer; from LI-COR Biosciences) for 60 minutes, and then, the cell lysate samples were added at 20 μL per well. For 3-actin detection, the cell lysate samples were added as they were at 20 μL per well to the Maxisorp 384-well plate, and after attaching a seal, the plate was allowed to stand at 4° C. overnight.
# The next day, after washing the KRAS detection plate with 0.05% Tween-20-containing PBS, an anti-Ras (G12D mutant specific) antibody (from Cell Signaling Technology) diluted 1,000-fold with a blocking solution was added at 20 μL per well as a detection antibody, and the plate was allowed to stand for 5 hours at room temperature. Then, the plate was centrifuged to remove the supernatant (using a centrifugal dehydrator machine, the supernatant was removed by the same method hereinafter) and was washed with 0.05% Tween-20-containing PBS. Then, an anti-Rabbit IgG […] antibody (from Cell Signaling Technology) diluted 1,000-fold with a blocking solution was added at 20 μL per well as a secondary antibody, and the plate was allowed to stand for 1 hour at room temperature. The plate was centrifuged to remove the supernatant and was washed with 0.05% Tween-20-containing PBS. Then, a BM chemiluminescent ELISA substrate (from Merck) was added at 20 μL per well, and the amounts of luminescence were measured with 2103 EnVision (from PerkinElmer). In addition, the 3-actin detection plate was washed with 0.05% Tween-20-containing PBS and was treated with a blocking solution for 60 minutes, and then, an anti-β-actin antibody (from Abcam) diluted 1,000-fold with a blocking solution was added at 20 μL per well as a detection antibody. The plate was allowed to stand for 5 hours at room temperature. Then, the plate was centrifuged to remove the supernatant and washed with 0.05% Tween-20-containing PBS, and then, an anti-Mouse IgG RP-linked antibody (from Cell Signaling Technology) diluted 1,000-fold with a blocking solution was added at 20 μL per well as a secondary antibody. […]
# T1 sequence (P01116 1-188 isoform P01116-2 G12D): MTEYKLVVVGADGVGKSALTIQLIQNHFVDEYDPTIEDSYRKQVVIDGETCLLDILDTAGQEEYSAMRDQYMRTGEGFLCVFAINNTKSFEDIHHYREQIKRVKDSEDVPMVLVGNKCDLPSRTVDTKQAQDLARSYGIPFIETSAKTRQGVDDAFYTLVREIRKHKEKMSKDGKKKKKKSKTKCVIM
row,SMILES,DC50 [nM]
1,Cc1ncsc1-c1ccc([C@H](CN(C)C)NC(=O)[C@@H]2C[C@@H](O)CN2C(=O)[C@H](C(C)C)n2cc(-c3ccc(COc4c(-c5c(C)c(F)cc6[nH]ncc56)c(C5CC5)cc5c(N6C[C@@H]7C[C@H]6CN7)nc(OC6CCOCC6)nc45)cc3)nn2)cc1 [Example 19],139
2,Cc1c(F)cc2[nH]ncc2c1-c1c(C2CC2)cc2c(N3C[C@@H]4C[C@H]3CN4)nc(OC3CCOCC3)nc2c1OCc1ccc(-c2cn([C@H](C(=O)N3C[C@H](O)C[C@H]3C(=O)N[C@@H](CO)c3ccc(-c4ccnn4C)cc3)C(C)C)nn2)cc1 [Example 23],34
3,Cc1ncsc1-c1ccc([C@@H](NC(=O)[C@@H]2C[C@@H](O)CN2C(=O)[C@H](C(C)C)n2cc(-c3ccc(COc4c(-c5c(C)c(F)cc6[nH]ncc56)c(C5CC5)cc5c(N6C[C@@H]7C[C@H]6CN7)nc(OC6CCOCC6)nc45)cc3)nn2)C(F)F)cc1 [Example 16],188
4,"Cc1ncsc1-c1ccc([C@H](CO)NC(=O)[C@@H]2C[C@@H](O)CN2C(=O)[C@H](C(C)C)n2cc(-c3ccc(COc4c(-c5c(C)c(F)cc6[nH]ncc56)c(C5CC5)cc5c(N6C[C@@H]7C[C@H]6CN7)nc(OC6CCOCC6)nc45)cc3)nn2)cc1 [Example 8, (4R)-1-[(2S)-2-(4-{4-[({6-cyclopropyl-4-[(1S,4S)-2,5-diazabicyclo[2.2.1]heptan-2-yl]-7-(6-fluoro-5-methyl-1H-indazol-4-yl)-2-[(oxan-4-yl)oxy]quinazolin-8-yl}oxy)methyl]phenyl}-1H-1,2,3-triazol-1-yl)-3-methylbutanoyl]-4-hydroxy-N-{(1R)-2-hydroxy-1-[4-(4-methyl-1,3-thiazol-5-yl)phenyl]ethyl}-L-prolinamide]",37
5,"Cc1c(F)cc2[nH]ncc2c1-c1c(C2CC2)cc2c(N3C[C@@H]4C[C@H]3CN4)nc(OC3CCOCC3)nc2c1OCc1ccc(-c2cn([C@H](C(=O)N3C[C@H](O)C[C@H]3C(=O)N[C@@H](CO)c3ccc(N4CCOC4=O)cc3)C(C)C)nn2)cc1 [Example 20, (4R)-1-[(2S)-2-(4-{4-[({6-cyclopropyl-4-[(1S,4S)-2,5-diazabicyclo[2.2.1]heptan-2-yl]-7-(6-fluoro-5-methyl-1H-indazol-4-yl)-2-[(oxan-4-yl)oxy]quinazolin-8-yl}oxy)methyl]phenyl}-1H-1,2,3-triazol-1-yl)-3-methylbutanoyl]-4-hydroxy-N-{(1R)-2-hydroxy-1-[4-(2-oxo-1,3-oxazolidin-3-yl)phenyl]ethyl}-L-prolinamide]",100
6,"Cc1c(F)cc2[nH]ncc2c1-c1c(C2CC2)cc2c(N3C[C@@H]4C[C@H]3CN4)nc(OC3CCOCC3)nc2c1OCc1ccc(-c2cn([C@H](C(=O)N3C[C@H](O)C[C@H]3C(=O)N[C@@H](CO)c3ccccc3)C(C)C)nn2)cc1 (atropisomer, axis not shown) [Example 14]",221
7,Cc1ncsc1-c1ccc([C@H](CO)NC(=O)[C@@H]2C[C@@H](O)CN2C(=O)[C@H](C(C)C)n2cc(-c3ccc(COc4c(-c5c(C)c(F)cc6[nH]ncc56)c(C5CC5)cc5c(N6C[C@@H]7C[C@H]6CN7)nc(OC6CCN(C7COC7)CC6)nc45)cc3)nn2)cc1 [Example 24],103
8,Cc1ncsc1-c1ccc(C2(NC(=O)[C@@H]3C[C@@H](O)CN3C(=O)[C@@H](NC(=O)c3ccc(COc4c(-c5c(C)c(F)cc6[nH]ncc56)c(C5CC5)cc5c(N6C[C@@H]7C[C@H]6CN7)nc(OC6CCOCC6)nc45)cn3)C(C)C)CC2)cc1 [Example 2],598
9,Cc1ncsc1-c1ccc([C@H](CO)NC(=O)[C@@H]2C[C@@H](O)CN2C(=O)[C@H](C(C)C)n2cc(-c3ccc(COc4c(-c5c(C)c(F)cc6[nH]ncc56)c(C5CC5)cc5c(N6C[C@@H]7C[C@H]6CN7)nc(OC6COC6)nc45)cc3)nn2)cc1 [Example 27],55
10,Cc1ncsc1-c1ccc([C@H](CO)NC(=O)[C@@H]2C[C@@H](O)CN2C(=O)[C@H](C(C)C)n2cc(-c3ccc(COc4c(-c5c(C)c(F)cc6[nH]ncc56)c(C5CC5)cc5c(N6C[C@@H]7C[C@H]6CN7)nc(OC6CCN(CC(F)F)CC6)nc45)cc3)nn2)cc1 [Example 21],72
11,Cc1ncsc1-c1ccc(C2(NC(=O)[C@@H]3C[C@@H](O)CN3C(=O)[C@@H](NC(=O)c3ccc(COc4c(-c5c(C)c(F)cc6[nH]ncc56)c(C5CC5)cc5c(N6C[C@@H]7C[C@H]6CN7)nc(OC6CCOCC6)nc45)cc3)C(C)C)CC2)cc1 [Example 1],123
12,Cc1ncsc1-c1ccc([C@H](CO)NC(=O)[C@@H]2C[C@@H](O)CN2C(=O)[C@H](C(C)C)n2cc(-c3ccc(COc4c(-c5c(C)c(F)cc6[nH]ncc56)c(C5CC5)cc5c(N6C[C@@H]7C[C@H]6CN7)nc(O[C@@H]6CCOC6)nc45)cc3)nn2)cc1 [Example 28],45
13,Cc1ncsc1-c1ccc([C@H](CO)NC(=O)[C@@H]2C[C@@H](O)CN2C(=O)[C@H](C(C)C)N2Cc3cc(COc4c(-c5c(C)c(F)cc6[nH]ncc56)c(C5CC5)cc5c(N6C[C@@H]7C[C@H]6CN7)nc(OC6CCOCC6)nc45)ccc3C2=O)cc1 [Example 4],897
14,CCn1nccc1-c1ccc([C@H](CO)NC(=O)[C@@H]2C[C@@H](O)CN2C(=O)[C@H](C(C)C)n2cc(-c3ccc(COc4c(-c5c(C)c(F)cc6[nH]ncc56)c(C5CC5)cc5c(N6C[C@@H]7C[C@H]6CN7)nc(OC6CCOCC6)nc45)cc3)nn2)cc1 [Example 26],24
15,Cc1ncsc1-c1ccc([C@H](CO)NC(=O)[C@@H]2C[C@@H](O)CN2C(=O)[C@@H](NC(=O)c2ccc(COc3c(-c4c(C)c(F)cc5[nH]ncc45)c(C4CC4)cc4c(N5C[C@@H]6C[C@H]5CN6)nc(OC5CCOCC5)nc34)cc2)C(C)C)cc1 [Example 3],140
16,Cc1ncsc1-c1ccc([C@H](CO)NC(=O)[C@@H]2C[C@@H](O)CN2C(=O)[C@H](C(C)C)n2cc(-c3ccc(COc4c(-c5c(C)c(F)cc6[nH]ncc56)c(C5CC5)cc5c(N6C[C@@H]7C[C@H]6CN7)nc(O[C@H]6CCOC6)nc45)cc3)nn2)cc1 [Example 29],33
17,Cc1ncsc1-c1ccc([C@H](CO)NC(=O)[C@@H]2C[C@@H](O)CN2C(=O)[C@H](C(C)C)n2cc(-c3ccc(COc4c(-c5cc(O)cc(F)c5C)c(C5CC5)cc5c(N6C[C@@H]7C[C@H]6CN7)nc(OC6CCOCC6)nc45)cc3)nn2)cc1 [Example 15],95
18,Cc1ncsc1-c1ccc([C@H](C)NC(=O)[C@@H]2C[C@@H](O)CN2C(=O)[C@H](C(C)C)n2cc(-c3ccc(COc4c(-c5c(C)c(F)cc6[nH]ncc56)c(C5CC5)cc5c(N6C[C@@H]7C[C@H]6CN7)nc(OC6CCOCC6)nc45)cc3)nn2)cc1 [Example 9],77

# Same assay, conditions: AsPC-1 cells, 24 hours treatment, corrected with β-actin, 0% = 10 μM Example No. 7, hydrochloride
row,DC50 [nM],SMILES
1,46,"Cc1ncsc1-c1ccc([C@H](CO)NC(=O)[C@@H]2C[C@@H](O)CN2C(=O)[C@H](C(C)C)n2cc(-c3ccc(COc4c(-c5c(C)c(F)cc6[nH]ncc56)c(C5CC5)cc5c(N6C[C@@H]7C[C@H]6CN7)nc(OC6CCOCC6)nc45)cc3)nn2)cc1 [Example 7, (4R)-1-[(2S)-2-(4-{4-[({6-cyclopropyl-4-[(1S,4S)-2,5-diazabicyclo[2.2.1]heptan-2-yl]-7-(6-fluoro-5-methyl-1H-indazol-4-yl)-2-[(oxan-4-yl)oxy]quinazolin-8-yl}oxy)methyl]phenyl}-1H-1,2,3-triazol-1-yl)-3-methylbutanoyl]-4-hydroxy-N-{(1R)-2-hydroxy-1-[4-(4-methyl-1,3-thiazol-5-yl)phenyl]ethyl}-L-prolinamide n hydrochloride]"
